Tests used:
[1] = Pharmacokinetic profile of CNP-38 after subcutaneous single-dose administration to cynomolgus monkeys; assay type: in vivo; settings: single s.c. 40 μg/kg
Procedure: This study was performed in order to test the pharmacokinetics of CNP-38 after subcutaneous (s.c.) administration in cynomolgus monkeys. Three male monkeys (2-4 years old, 3-5 kg) received a single s.c. injection at a dose of 40 μg/kg of CNP-38. Blood samples were collected at 5, 10, 15, 30, 45 min and 1, 2, 4, 8 hours upon dose.
Method: Plasma levels of CNP were analysed using a commercially available competitive radioimmuno-assay (RK-012-03, Phoenix Pharmaceuticals, CA). The assay was applied essentially as described by the manufacturer. The assay is based on competitive binding between 125I-labelled CNP (supplied in the kit) and unlabeled CNP (from study sample or calibrants) to an anti-CNP antibody. […] By measuring the amount of 125I-labelled CNP bound as a function of the concentration of peptide, it is possible to construct a calibration curve from which the concentration of peptide in the sample can be determined.
A few changes to the supplied assay protocol were made. These changes included using in-house CNP calibrant and QC samples to secure consistency between assay runs. […] Due to matrix effects in monkey plasma, the minimal required dilution was set at 1:10, yielding an assay range of 150-1080 μg/mL CNP.

[2] = Evaluation of cardiovascular effects in the conscious telemetered mouse (subcutaneous administration); assay type: in vivo, Crl:CD1(ICR) mice; settings: 800 μg CNP-38 (eq)/kg sc
Procedure: Male Crl:CD1(ICR) mice (age range 8-13 weeks and body weight range 27.3-35.6 g at start of dosing) were surgically implanted with a TA11PA-C10 telemetry transmitter (Data Sciences International (DSI)) in the carotid artery. The body of the transmitter was placed subcutaneously in the lateral flank of the mouse. The mice were dosed subcutaneously in a latin square crossover design with at least 72 hours between dosing occasions. […] At least four mice were included at each dose level. Blood pressure (systolic (SAP), diastolic (DAP) and mean (MAP) and heart rate (HR, derived from blood pressure), were recorded using a digital data capture system linked with a DSITM Ponemah data acquisition and analysis system. The capture system allowed recording of the cardiovascular parameters whilst the mice were in individual cages. On the day of each test session the animals were weighed and a predose recording was performed for at least 60 min prior to dosing. Each mouse was returned to the home cage and the cardiovascular parameters were recorded for approximately 48 hours postdose. Blood pressure and HR were reported at the following time points: −30, −20, −10, 5, 15 and 30 min postdose and 1, 2, 6, 12, 18, 24, 30, 36, 42 and 48 hours postdose. Each time point was presented as the average value of five minute's recording prior to the time point. The monitoring period was selected to cover exposure to the test items both prior to and after Tmax.

[3] = in vivo; cited from earlier work
[4] = doses up to 15 μg/kg, healthy volunteers; cited from earlier work

| Compound | tolerability [1] | effect on heart rate (HR) ([2]; up to 48 hours postdose) | effect on blood pressure (MAP) ([2]; 5, 15 and 30 min post dose, CNP-38: 3 of 4 animals) | MAP 5 min post dose (mean±SD) ([2]; 5 min post dose) | MAP 15 min post dose (mean±SD) ([2]; 15 min post dose) | MAP 30 min post dose (mean±SD) ([2]; 30 min post dose) | MAP predose (mean±SD) ([2]; predose) | half-life [3] | blood pressure effect [4] |
| --- | --- | --- | --- | --- | --- | --- | --- | --- | --- |
| CC[C@H](C)[C@@H]1NC(=O)[C@H](CCCNC(=N)N)NC(=O)[C@H](CC(=O)O)NC(=O)[C@H](CC(C)C)NC(=O)[C@H](CCCCN)NC(=O)[C@H](CC(C)C)NC(=O)CNC(=O)[C@H](Cc2ccccc2)NC(=O)[C@@H](NC(=O)CNC(=O)[C@H](CCCCN)NC(=O)[C@H](CO)NC(=O)[C@H](CC(C)C)NC(=O)CNC(=O)[C@H](CCCCN)NC(=O)[C@H](CCCCN)NC(=O)[C@H](CC(N)=O)NC(=O)[C@H](C)NC(=O)CNC(=O)[C@H](CCCCN)NC(=O)[C@H](Cc2ccc(O)cc2)NC(=O)[C@H](CCCCN)NC(=O)[C@H](CCCNC(=N)N)NC(=O)[C@H](C)NC(=O)[C@H](CC(N)=O)NC(=O)[C@@H]2CCCN2C(=O)[C@H](Cc2c[nH]cn2)NC(=O)[C@H](CCC(=O)O)NC(=O)[C@H](CCC(N)=O)NC(=O)[C@@H](N)CC(C)C)CSSC[C@@H](C(=O)O)NC(=O)CNC(=O)[C@H](CC(C)C)NC(=O)CNC(=O)[C@H](CO)NC(=O)[C@H](CCSC)NC(=O)[C@H](CO)NC(=O)CNC1=O [CNP-38] | well tolerated | not impacted | significant decrease in MAP | 102.0 ± 7.5 mmHg | 89.5 ± 29.4 mmHg | 99.5 ± 25.2 mmHg | 106.8 ± 13.4 mmHg |  |  |
| BMN-111 |  |  |  |  |  |  |  | 20 min | mild hypotension |

— patent publication US12083182B2, “Controlled-release CNP agonists with increased NEP stability” (ASCENDIS PHARMA GROWTH DISORDERS A/S, priority 2016, dated 2024)
